The text below walks through data of article PMC12257394, “Design, Synthesis, and Biological Evaluation of Ferrocenyl–Cyclo-(Gly‑L‑Pro) Hybrids Sensitizing Multidrug-Resistant Cancer Cells to Anticancer Agents” (ACS Medicinal Chemistry Letters, 2025).

A value given as a limit tells only on which side of the number the result lay.

The data set can be described thus: Neutral red uptake viability assay, SW620. The class given is cell-based, human. Conditions: human, SW620 colon cancer cells; SW620, 72 h, n = 3; read-out: Cytotoxic activity IC50 (95% CI). In short, it runs like this: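 10^4 cells/well, overnight attachment; cpd 1 or 10 μM, 0.1% DMSO, 70 h, 37°C/5% CO2; neutral red 1 mM final, 2 h; PBS wash x2, solubilize, A540; % control, IC50 fit.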

Broadly, the IC50 is the midpoint of a concentration-inhibition curve. Take `O=C1N/C(=C\c2ccccc2)C(=O)N2CCC[C@@H]12` [(S,Z)-4e]: the IC50 at 72 h was above 100 µM.
Next, `O=C1N/C(=C/c2ccccc2)C(=O)N2CCC[C@@H]12` [(S,E)-4e]: above 100 µM.
